Here are results for 10 molecules from US7867749B2, “Nematode phosphoethanolamine N-methyltransferase-like sequences” (priority 2006, dated 2011).

By Km is commonly meant the substrate concentration at which the rate is half of its maximum.

Like-named read-outs stand apart in the source and are kept apart here.

Series [1] relates to C. elegans. Put plainly: Nematicidal activity of ethanolamine-like compounds against C. elegans. Type of series: in vivo, Caenorhabditis elegans. The conditions noted are these: P0 L4 larva; for F1 PHENOTYPE: 23° C.; for nematicidal activity against C. elegans: various concentrations.
The test system of series [2] is isolated intestinal epithelial cells. Conditions: cited from earlier work.
The test system of series [3] is everted hamster jejunal and ileal segments. The conditions noted are these: cited from earlier work.
Series [4] concerns the target T1, C. elegans PEAMT2 (DIV3202) (Caenorhabditis elegans, UniProt Q22993).
T1 sequence (Q22993 1-437): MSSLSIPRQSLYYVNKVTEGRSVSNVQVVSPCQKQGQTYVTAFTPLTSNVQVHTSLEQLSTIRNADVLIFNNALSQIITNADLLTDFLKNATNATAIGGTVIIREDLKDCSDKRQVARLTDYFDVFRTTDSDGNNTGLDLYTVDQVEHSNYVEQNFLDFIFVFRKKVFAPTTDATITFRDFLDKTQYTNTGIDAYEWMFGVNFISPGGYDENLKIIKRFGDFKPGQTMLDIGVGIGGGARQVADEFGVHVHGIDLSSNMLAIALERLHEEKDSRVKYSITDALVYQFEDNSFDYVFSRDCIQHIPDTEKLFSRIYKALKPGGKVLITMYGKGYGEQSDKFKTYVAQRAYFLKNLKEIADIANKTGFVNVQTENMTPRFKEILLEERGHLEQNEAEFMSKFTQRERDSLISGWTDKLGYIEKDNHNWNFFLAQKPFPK
Nature of the series: Km determination, radiochemical PEAMT assay. Type of series: biochemical. Conditions: 118 nM DIV3202H+.

For series [5], the system named is C. elegans. Nature of the series: Chemical rescue of the PEAMT1 RNAi-generated phenotype (feeding). Format: in vivo, Caenorhabditis elegans. The conditions noted are these: for rescue of PEAMT1 mutants (RNAi-generated): 5 mM; for suppression of PEAMT1 larval lethal RNAi phenotype: chemical complementation, concentration not given.
Series [6] relates to C. elegans. Nature of the series: Chemical rescue of the PEAMT2 RNAi-generated phenotype (feeding). Type of series: in vivo, Caenorhabditis elegans. The conditions noted are these: for rescue of PEAMT2 RNAi phenotype: chemical complementation, singly or in combination, concentration not given.
Series [7] has as its target T2, C. elegans PEAMT1 (DIV3441) (Caenorhabditis elegans, UniProt Q23552).
T2 construct: HIS tag (pET28a) (N); made in house; host or cells: bacterial culture, IPTG-induced pET28a
T2 sequence (Q23552 1-475): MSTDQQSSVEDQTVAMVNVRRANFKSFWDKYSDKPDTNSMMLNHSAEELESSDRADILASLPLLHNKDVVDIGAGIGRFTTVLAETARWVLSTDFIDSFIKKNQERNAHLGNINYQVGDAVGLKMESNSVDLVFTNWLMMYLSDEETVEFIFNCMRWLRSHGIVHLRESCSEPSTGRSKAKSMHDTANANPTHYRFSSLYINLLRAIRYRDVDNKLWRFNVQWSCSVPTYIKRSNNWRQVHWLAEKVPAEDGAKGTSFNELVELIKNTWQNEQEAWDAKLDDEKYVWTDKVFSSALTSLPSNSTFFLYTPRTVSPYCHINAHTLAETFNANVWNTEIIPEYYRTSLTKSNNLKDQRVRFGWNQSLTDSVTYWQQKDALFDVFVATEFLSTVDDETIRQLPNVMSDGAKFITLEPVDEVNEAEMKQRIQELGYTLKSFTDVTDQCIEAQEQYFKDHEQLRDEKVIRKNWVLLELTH
Nature of the series: Km determination, radiochemical PEAMT assay. Format: biochemical.

The next series concerns Cephalobus sp. Nature of the series: Nematicidal activity against other nematodes. Type of series: in vivo.
The subject of a further series is M. javanica. Nature of the series: Nematicidal activity against plant parasites, J2 larvae soak. Format: in vivo, Meloidogyne javanica. The conditions noted are these: 15 mM; J2 larvae soaked 48 hours. The protocol:
(§1) The ethanolamine-like compounds mentioned above are also nematicidal against the plant parasites Meloidogyne incongnita and Meloidogyne javanica. Between 25 and 50 J2 stage larvae were soaked in the compounds for 48 hours at the indicated concentrations. After the treatment, the larvae were moved to an agar plate containing NGM. Worms that crawl away from the application spot are scored as alive while those that remain at the application spot are scored as dead. The three compounds that were nematicidal against C. elegans were also nematicidal against M. incognita and M. javanica

For another series, the system named is A. ellesmerensis. Put plainly: Nematicidal activity against other nematodes. Type of series: in vivo, Acrobiloides ellesmerensis.
In the next series the test system is M. incognita. Format: in vivo, Meloidogyne incongnita. Conditions: J2 larvae soaked 48 hours. The protocol:
as §1

Setting [8] is: P0 L4, 5 or 10 mM in plate media.

On to `OCCNc1ccccc1` [N-(2-hydroxyethyl)aniline], for which, in the series with C. elegans [1] (10 mM), the “F1 PHENOTYPE” value was “L1/L2 arrest/lethality”. Further, in the series on C. elegans [1], the “nematicidal activity against C. elegans” value is “showed nematicidal activity”.
For `CCCCCC[C@@H](O)C/C=C\CCCCCCCC(=O)O` [Ricinoleic acid], the cytotoxicity result in series [2] is “cytotoxic”. For the same molecule, in series [3], the “effect on water and electrolyte absorption” value is given as “inhibitory effect”.
Turning to `CNCCO` [MME, monomethylethanolamine], the Km in series [4] (1 mM SAM, 0.15-20 mM MME, read-out: Km of MME for DIV3202H+ (PEAMT2H+; intact HIS tag)) came out at 2.1 ± 0.97 µM. Further, in the series with C. elegans [5], the “rescue of PEAMT1 mutants (RNAi-generated)” value is given as “rescued” and the “suppression of PEAMT1 larval lethal RNAi phenotype” value is “suppressed”. Further, in the series on C. elegans [5] (setting [8]), the “F1 phenotype, PEAMT1 dsRNA” value is on record as “Fertile adults”. The “F1 phenotype, PEAMT2 dsRNA” value in the series on C. elegans [6] (setting [8]) is given as “L1/L2 arrest/lethality”. For the same molecule, the “rescue of PEAMT2 RNAi phenotype” value in the series on C. elegans [6] is recorded as “not”.
`CCCCCC[C@@H](O)C/C=C\CCCCCCCC(=O)OC` [methyl ester of ricinoleic acid]: the “effect on water and electrolyte absorption” value in series [3] was “ineffective”.
Turning to `CN(C)CCO` [DME, dimethylethanolamine], the Km in series [4] (1 mM SAM, 0.05-10 mM DME, read-out: Km of DME for DIV3202H+ (PEAMT2H+; intact HIS tag)) stood at 1.39 ± 0.26 µM. In addition, the “rescue of PEAMT1 mutants (RNAi-generated)” value in the series with C. elegans [5] is “rescued”. In addition, the “rescue of sterility associated with PEAMT1 RNAi” value in the series with C. elegans [5] (Five mM) is “rescues the sterility”. For the same molecule, the “F1 phenotype, PEAMT1 dsRNA” value in the series on C. elegans [5] (P0 Dauer, 10 mM in plate media) is “Fertile adults”; with C. elegans [5] (P0 L1, 10 mM in plate media) it was “Fertile adults”; in the series with C. elegans [5] (setting [8]) it was “Fertile adults”. Besides, the “F1 phenotype, PEAMT2 dsRNA” value is “Sterility” with C. elegans [6] (P0 Dauer, 10 mM in plate media); “Sterility” with C. elegans [6] (P0 L1, 10 mM in plate media); “L1/L2 arrest/lethality” in the series on C. elegans [6] (setting [8]). For the same molecule, in the series on C. elegans [6], the “rescue of PEAMT2 RNAi phenotype” value was “not”.
Regarding `NCCO` [ethanolamine (EA), ethanolamine], the “F1 phenotype, PEAMT1 dsRNA” value with C. elegans [5] (P0 L4, 10 mM in plate media) was “L1/L2 arrest/lethality”. Further, the “suppression of PEAMT1 larval lethal RNAi phenotype” value in the series on C. elegans [5] was “not”. Besides, in the series with C. elegans [6] (P0 L4, 10 mM in plate media), the “F1 phenotype, PEAMT2 dsRNA” value is listed as “L1/L2 arrest/lethality”. For the same molecule, the “rescue of PEAMT2 RNAi phenotype” value with C. elegans [6] is on record as “not”.
For `C[S+](CC[C@H](N)C(=O)O)C[C@H]1O[C@@H](n2cnc3c(N)ncnc32)[C@H](O)[C@@H]1O` (stereo partly drawn) [S-adenosyl-L-methionine], the Km in series [4] (10 mM DME, 0.004-3 mM SAM, read-out: Km of S-adenosyl-L-methionine for DIV3202H+ (PEAMT2H+; intact HIS tag)) stood at 167 ± 34.6 µM; in [4] (30 mM MME, 0.004-3 mM SAM, read-out: Km of S-adenosyl-L-methionine for DIV3202H+ (PEAMT2H+; intact HIS tag)), 163 ± 42.4 µM; in series [7] (read-out: Km of S-adenosyl-L-methionine for DIV3441H+ (PEAMT1H+; intact HIS tag)), 62.5 ± 9.68 µM; in series [7] (read-out: Km of S-adenosyl-L-methionine for DIV3441H− (PEAMT1H−; cleaved HIS tag)), 146 ± 31.1 µM.
`CC(C)(C)NCCO` [2-(tert-butylamino)ethanol]: the “F1 PHENOTYPE” value in the series with Cephalobus sp. (10 mM), with A. ellesmerensis (10 mM) and in the series with C. elegans [1] (10 mM) was “L1/L2 arrest/lethality” each time. The “% DEAD WORMS” value in the series with M. javanica and in the series on M. incognita (5 mM) was 50% in each case. Also, the “nematicidal activity against C. elegans” value with C. elegans [1] is on record as “showed nematicidal activity”.
Regarding `N[C@@H](CO)Cc1ccccc1` [D-phenylalaninol], the “F1 PHENOTYPE” value with Cephalobus sp. (12.5 mM), in the series on A. ellesmerensis (12.5 mM) and in the series with C. elegans [1] (10 mM) was “L1/L2 arrest/lethality” throughout. Also, the “nematicidal activity against C. elegans” value with C. elegans [1] is “showed nematicidal activity”. Also, in the series with M. incognita (25 mM), the “% DEAD WORMS” value worked out at 100%.
As to `NCC(O)c1ccccc1` (stereo not drawn) [2-amino-1-phenylethanol], the “F1 PHENOTYPE” value in the series with C. elegans [1] (25 mM) is “Wild-type development”. The “nematicidal activity against C. elegans” value in the series on C. elegans [1] is on record as “no nematicidal effect”.
